The test system of assay [1] is myoblasts from a mouse model of Duchenne muscular dystrophy (mdx4cv). In words: NE-induced myoblast death, mdx4cv mouse myoblasts treated with mouse NE. As to conditions: FIG. 1E. Format: cell-based. An excerpt:
(§1) The number of live cells in each condition was counted and plotted as percentage of the number of live cells in the untreated (Control) condition.

The subject of assay [2] is myoblasts isolated from a patient affected by Duchenne muscular dystrophy. In words: NE-induced myoblast death, DMD patient myoblasts treated with human NE. Format: cell-based. As to conditions: for rescue of NE-induced myoblast death (number of live cells as percentage of untreated Control): DMD patient myoblasts treated with human NE, FIG. 1D; for effectiveness against human NE compared with mouse NE: comparison of FIG. 1D (hNE) and FIG. 1E (mNE).
From the text: as §1

The subject of assay [3] is dystrophin-deficient mice (mdx4cv strain). Briefly: Muscle mass: quadriceps wet weight and diaphragm cross-sectional area. As to conditions: 12 weeks; for prednisolone-induced loss of muscle mass / muscle atrophy: in combination with prednisolone, FIGS. 15, 16; for muscle mass (quadriceps wet weight): single agent, FIG. 15. Format: in vivo, mouse. An excerpt: FIG. 15 illustrates the wet weight of quadriceps muscle groups dissected from dystrophic mice at treatment start (baseline, Pre-Tr) or after the 12 week administration period, at the time of euthanasia.

For assay [4] the test system is unchanged. Briefly: Serum muscle creatine kinase (mCK) activity. Format: in vivo, mouse. As to conditions: 12 weeks; FIG. 6. The source says:
FIG. 6 is a graphical illustration of muscle creatine kinase (mCK) activity for various cohorts of tested mice (including mice pre-treatment with any elastase inhibitor or glucocorticoid) at the conclusion of the 12 week administration period. FIG. 7 is a graphical illustration of MyoD protein levels for various cohorts of tested mice (including mice pre-treatment with any elastase inhibitor or glucocorticoid) at the conclusion of the 12 week administration period. FIG. 8 is a graphical illustration of liver pathology scores for various cohorts of tested mice (including mice pre-treatment, with any elastase inhibitor or glucocorticoid) at the conclusion of the 12 week administration period.

Assay [5] addresses T1, Human NE (hNE) (Homo sapiens, UniProt P08246).
T1 sequence (P08246 30-267): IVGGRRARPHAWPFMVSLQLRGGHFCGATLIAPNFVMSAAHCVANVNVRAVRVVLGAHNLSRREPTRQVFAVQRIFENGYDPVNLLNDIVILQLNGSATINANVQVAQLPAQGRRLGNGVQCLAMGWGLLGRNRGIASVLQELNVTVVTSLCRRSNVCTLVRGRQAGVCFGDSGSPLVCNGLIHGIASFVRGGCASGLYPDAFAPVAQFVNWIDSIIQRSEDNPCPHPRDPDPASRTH
In words: Human NE activity in vitro, cumulative elastase activity over time. As to conditions: hNE incubated with various concentration of inhibitor; FIGS. 1A-1C. Format: biochemical. The method, then: In FIGS. 1A-1C Human NE (hNE) was incubated for the indicated amount of time (X-axis) either alone (Control, black line) or in the presence of various concentration of inhibitor, as indicated in each graph (colored lines). The cumulative elastase activity detected over time is plotted.
Several methods for measuring elastase enzymatic activity are known in the art. Merely by way of example, elastase activity can be determined by measuring the fluorescence emitted by a fluorigenic peptide such as MeOSuc-Ala-Ala-Pro-Val-AFC or Suc-Ala-Ala-Ala-AMC. Fluorescence may be measured, for example, using a plate reader. Other suitable assays for measuring elastase activity will be known to the skilled person. These may include measuring the product generated by incubation with a fluorescently labelled peptide such as 5-FAM-Arg-Glu-Ala-Val-Val-Tyr or 5-FAM-Ala-Ala-Ala-Phe-Tyr-Asp using an instrument that detects the size of the fluorescently labelled probe.

In assay [6] the test system is dystrophin-deficient mice (mdx4cv strain). Briefly: Muscle fibrosis, Sirius Red staining of gastrocnemius cryosections. The assay is classed as in vivo, mouse. The settings on record: 12 weeks, FIG. 13. The method, then: FIG. 13 illustrates fibrosis levels of the various cohorts, assessed on cryosections of gastrocnemius muscles from the mice, which were stained with Sirius Red to detect fibrillar collagen. Untreated dystrophic mice were euthanized at the age when treatments start (Pre-tr) and used as baseline for disease progression. Images were analyzed for their fluorescence intensity (Sirius red emits fluorescence in the yellow-red band of the light spectrum) as a measure of collagen abundance per unit area (e.g. per pixel), which was multiplied by the total Sirius red+ area as a proxy for 3D evaluation of fibrillar collagen content.

The test system is the same in assay [7]. In words: Myofiber necrosis (mIgG uptake on immunostained cryosections). The assay is classed as in vivo, mouse. The settings on record: 12 weeks, FIG. 10. The method, then: In FIG. 10, myofiber necrosis was measured by calculating the percentage of myofibers that uptake mouse immunoglobulins (mIgG) on immunostained cryosections. IgG are normally present only in the blood and the extracellular matrix within tissues, but are uptaken by necrotic cells that have permeable plasma membranes due to cell damage damage.

Assay [8] has the same test system. In words: Diaphragm strip tetanic force and residual force. Format: in vivo, mouse.
Assay [9] shares this test system. Briefly: Inflammation transcripts in muscle by RNA sequencing. Format: in vivo, mouse. The settings on record: elastase inhibitor alone, 12 weeks; FIGS. 11A, 11B. The method, then:
In FIGS. 11A and 11B, mRNA was extracted from muscles of the mice, then transcripts were quantified using next generation sequencing. […] Mdx^4cv mice were treated for 12 weeks with either placebo (Plcb, gray boxes) or prednisolone (1 mg/Kg/day, cyan boxes) alone or in combination with the elastase inhibitor alvelestat (Alv) at two different doses (10 mg/Kg/day, pink boxes; 25 mg/Kg/day, purple boxes). Each box-and-whiskers graph represent the levels of a marker of the immune response detected by RNA sequencing (n=6 per treatment group, Y-axis scale on the left). The overlayed line graphs show the effect size of each treatment vs Plcb calculated and plotted as Cohen's d (Y-axis scale on the right). Significance of each treatment vs Plcb: ***=p<0.001, **=p<0.01, *=p<0.05.

Assay [10] shares this test system. In words: 12-week oral treatment of mdx4cv mice, overall efficacy. Format: in vivo, mouse. As to conditions: elastase inhibitor orally, concomitantly with oral prednisolone. The method, then:
FIG. 1F is a graphical illustration of data gathered from in vivo testing efficacy of a placebo, as compared to the elastase inhibitor Alvelestat, alone at various administration concentrations, and in combination with the glucocorticoid prednisolone at various administration concentrations. In this, and the following figures, the abbreviation “Plcb” refers to administration of a placebo, the abbreviation “Pred” refers to administration of prednisolone at 1 mg/kg/day, the abbreviation “Alv10” refers to the administration of the elastase inhibitor alvelestat at 10 mg/kg/day, and the abbreviation “Alv25” refers to the administration of the elastase inhibitor alvelestat at 25 mg/kg/day.
The administration of the various compounds occurred over a 12-week period, in a controlled randomized, double blinded test using dystrophin-deficient mice (mdx4cv strain). In FIG. 1F, beginning during the tenth week of the test, the mice were exposed to an activity wheel, with the cumulative distance plotted on the y-axis and the number of days spent with the exercise wheel plotted on the x-axis.

Each structure is given as a SMILES string. Entries after “also recorded” stand apart in the source; their conditions may differ.

The record followed here is US11918570B2, “Method of treatment for prevention of glucocorticoid toxicity and/or enhancement of muscle regeneration via neutrophil elastase inhibition” (The Research Foundation for The State University of New York, priority 2020, dated 2024).

In the case of `CC(=O)C1=C(C)N(c2cccc(C(F)(F)F)c2)C(=O)N[C@@H]1c1ccc(C#N)nc1` [BAY-678], in assay [1], the “rescue of NE-induced myoblast death (number of live cells as percentage of untreated Control)” value is given as “similarly effective at blocking NE-induced myoblast death”.
Consider `Cc1c(-c2ccnn2C)cc(C(=O)NCc2ccc(S(C)(=O)=O)cn2)c(=O)n1-c1cccc(C(F)(F)F)c1` [Alvelestat], for which, in [2], the “rescue of NE-induced myoblast death (number of live cells as percentage of untreated Control)” value is on record as “similarly effective at rescuing NE-induced myoblast cell death; also recorded: similarly effective at blocking NE-induced myoblast death” and the “effectiveness against human NE compared with mouse NE” value is recorded as “most effective against human NE”. Also, the “rescue of NE-induced myoblast death (number of live cells as percentage of untreated Control)” value in assay [1] was “similarly effective at blocking NE-induced myoblast death”. In addition, in assay [3], the “prednisolone-induced loss of muscle mass / muscle atrophy” value is given as “partly rescued the prednisolone-induced loss of muscle mass in a dose-dependent manner that appears inversely correlated” and the “muscle mass (quadriceps wet weight)” value is given as “increased it”. Also, the “prednisolone-induced loss of muscle mass / muscle atrophy” value in assay [3] (listed as AZD9668) is “reduces prednisolone induced muscle atrophy”. In addition, the “serum mCK levels (muscle damage)” value in assay [4] is given as “lowers serum mCK levels”. The “inhibiting human NE activity in vitro” value in assay [5] is “similarly potent”. For the same compound, in assay [6] (alone), the muscle fibrosis result was “decreases muscle fibrosis”. Also, the prednisolone-induced fibrosis entry in [6] (in combination with prednisolone) was “prevents prednisolone-induced fibrosis”. Further, in [7] (alvelestat alone, 10 and 25 mg/kg/day), the myofiber necrosis entry is “decreases myofiber necrosis in a dose-dependent manner; also recorded: reduces necrosis”. Besides, the “myofiber necrosis / myofiber stability” value in assay [7] (combined with prednisolone 1 mg/kg/day) is “additive affect on myofiber stability”. Further, the “diaphragm weakness (specific tetanic force, residual force)” value in [8] (alone and in combination with prednisolone, FIGS. 17-19) was “affects diaphragm weakness independent of muscle loss in a complex manner”. Further, in assay [9], the “inflammation (immune response transcripts)” value is given as “does not significantly affect inflammation”. In addition, the prednisolone efficacy result in assay [10] is reported as “enhances prednisolone efficacy”.
In the case of `C[C@]12C=CC(=O)C=C1CC[C@@H]1[C@@H]2[C@@H](O)C[C@@]2(C)[C@H]1CC[C@]2(O)C(=O)CO` [prednisolone], the “muscle mass (quadriceps wet weight)” value in assay [3] is “dramatically decreased muscle mass”. Also, in assay [8] (diaphragm strips, 20 second tetanus, FIG. 19), the “residual force at 15 seconds after peak force (percentage of the peak force)” value was “decline in residual force, which is greater for prednisolone alone”.
As to `COc1cc(C(C)C)c2c(c1)S(=O)(=O)N(COc1cc(=O)n3cccc(OCCN4CCCCC4)c3n1)C2=O` [SSR69071], in assay [2], the “rescue of NE-induced myoblast death (number of live cells as percentage of untreated Control)” value was “similarly effective at rescuing NE-induced myoblast cell death; also recorded: similarly effective at blocking NE-induced myoblast death” and the “effectiveness against human NE compared with mouse NE” value is “most effective against human NE”. In addition, in assay [1], the “rescue of NE-induced myoblast death (number of live cells as percentage of untreated Control)” value is “similarly effective at blocking NE-induced myoblast death”. The “inhibiting human NE activity in vitro” value in [5] is reported as “similarly potent”.
